The target of the series is T1, MDR1 (P-glycoprotein) (Homo sapiens, UniProt P08183).
T1 construct: host or cells: MDCK (MDR1-MDCK; wild-type MDCK as comparator)
The series is described as follows: MDR1-MDCK permeability and efflux assay (Papp, efflux ratio, effective efflux ratio). The conditions noted are these: dog; for Papp A→B at 1 h, 10 μM: pH 7.4, read-out: Papp AB MDR1. The series is classed as in vitro ADME. The protocol:
The MDR1-MDCK effective efflux assay was performed as described in the BioFocus Standard Operating Procedure, ADME-SOP-56. Both wild-type (WT) and MDR1-MDCK cells (Solvo Biotechnology) were seeded onto 24-well Transwell plates at 2.35×10^5 cells per well and used in confluent monolayers after a 3 day culture at 37° C. under 5% CO2. For both cell types, test and control compounds (propranolol, vinblastine) were added (10 μM, 0.1% DMSO final, n=2) to donor compartments of the Transwell plate assembly in assay buffer (Hanks balanced salt solution supplemented with 25 mM HEPES, adjusted to pH 7.4) for both apical to basolateral (A>B) and basolateral to apical (B>A) measurements. Incubations were performed at 37° C., with samples removed from both donor and acceptor chambers at T=0 and 1 hour and compound analysed by mass spectrometry (LC-MS/MS) including an analytical internal standard.
Apparent permeability (Papp) values were determined from the relationship: Papp=[CompoundAcceptor T=end]×V Acceptor/([Compound Donor T=0]×V Donor)/incubation time×V Donor/Area×60×10^−6 cm/s
In this equation, V is the volume of each Transwell compartment (apical 125 μL, basolateral 600 μL), and concentrations are the relative MS responses for compound (normalized to internal standard) in the donor chamber before incubation and acceptor chamber at the end of the incubation, and Area is the area of cells exposed for drug transfer (0.33 cm^2).
Efflux ratios (Papp B>A/Papp A>B) were calculated for each compound from the mean Papp values in each direction for both wild-type and MDR1-MDCK cells.
In order to confirm the involvement of MDR1 in any efflux seen, an “effective efflux ratio” (EER) was calculated by comparing compound efflux ratios (ER) in the two cell types by the following equation: EER=ER(MDR1-MDCK)/ER(wild-type MDCK)
This ratio illustrates the effect of the over-expressed MDR1 normalised for the background movement of compound through the wild-type cells.
Lucifer Yellow (LY) was added to the apical buffer in all wells to assess viability of the cell layer. […] Recoveries<50% indicates compound solubility, stability or binding issues, thereby reducing the reliability of a result.
The inherent ability of a potential drug molecule to penetrate the blood brain barrier and avoid efflux by transporters expressed in the brain, can be roughly correlated with the Papp(A-B) and the efflux ratio (as defined above), respectively. A potential drug molecule with an apparent permeability<7 (10^−6 cm/sec) has low permeability (+), >7 (10^−6 cm/sec) but <10 (10^−6 cm/sec) has moderate permeability (++), >10 (10^−6 cm/sec) but <20 (10^−6 cm/sec) has good permeability (+++), and >20 (10^−6 cm/sec) is highly permeable (++++). High permeability in the WT and MDCK II cell permeability assay increases the probability of blood brain barrier penetration and access to the CNS. A potential drug molecule in the above assay system with an efflux ratio or effective efflux ratio of <1 has low probability of being an efflux substrate (++++), >1 but <2 has moderate probability of being an efflux substrate (+++), >2 but <3 has has an increased probability of being an efflux substrate (++), and >3 has a high probability of being an efflux substrate (+). If a potential drug molecule is an efflux substrate, the molecule will have a low probability of reaching exposures in the brain (site of action) that will result in efficacious levels of receptor occupancy.

Setting [1] is: MDCK-MDR1, pH 7.4, ER(MDR1-MDCK)/ER(wild-type MDCK), read-out: EER (Effective Efflux Ratio).
The mark [2] stands for this setting: MDCK-MDR1, pH 7.4, Papp B>A/Papp A>B, MDR1-MDCK cells, read-out: ER MDR1 (Efflux Ratio).

The values below come from US12152038B2, “Vasopressin receptor antagonists and products and methods related thereto” (Neumora Therapeutics, Inc., priority 2017, dated 2024).

Molecules are shown by their SMILES. Where two headings read alike, the source gives them in different places. Where only a bound is given, the exact number is not on record here.

T1 sequence (P08183 whole entry): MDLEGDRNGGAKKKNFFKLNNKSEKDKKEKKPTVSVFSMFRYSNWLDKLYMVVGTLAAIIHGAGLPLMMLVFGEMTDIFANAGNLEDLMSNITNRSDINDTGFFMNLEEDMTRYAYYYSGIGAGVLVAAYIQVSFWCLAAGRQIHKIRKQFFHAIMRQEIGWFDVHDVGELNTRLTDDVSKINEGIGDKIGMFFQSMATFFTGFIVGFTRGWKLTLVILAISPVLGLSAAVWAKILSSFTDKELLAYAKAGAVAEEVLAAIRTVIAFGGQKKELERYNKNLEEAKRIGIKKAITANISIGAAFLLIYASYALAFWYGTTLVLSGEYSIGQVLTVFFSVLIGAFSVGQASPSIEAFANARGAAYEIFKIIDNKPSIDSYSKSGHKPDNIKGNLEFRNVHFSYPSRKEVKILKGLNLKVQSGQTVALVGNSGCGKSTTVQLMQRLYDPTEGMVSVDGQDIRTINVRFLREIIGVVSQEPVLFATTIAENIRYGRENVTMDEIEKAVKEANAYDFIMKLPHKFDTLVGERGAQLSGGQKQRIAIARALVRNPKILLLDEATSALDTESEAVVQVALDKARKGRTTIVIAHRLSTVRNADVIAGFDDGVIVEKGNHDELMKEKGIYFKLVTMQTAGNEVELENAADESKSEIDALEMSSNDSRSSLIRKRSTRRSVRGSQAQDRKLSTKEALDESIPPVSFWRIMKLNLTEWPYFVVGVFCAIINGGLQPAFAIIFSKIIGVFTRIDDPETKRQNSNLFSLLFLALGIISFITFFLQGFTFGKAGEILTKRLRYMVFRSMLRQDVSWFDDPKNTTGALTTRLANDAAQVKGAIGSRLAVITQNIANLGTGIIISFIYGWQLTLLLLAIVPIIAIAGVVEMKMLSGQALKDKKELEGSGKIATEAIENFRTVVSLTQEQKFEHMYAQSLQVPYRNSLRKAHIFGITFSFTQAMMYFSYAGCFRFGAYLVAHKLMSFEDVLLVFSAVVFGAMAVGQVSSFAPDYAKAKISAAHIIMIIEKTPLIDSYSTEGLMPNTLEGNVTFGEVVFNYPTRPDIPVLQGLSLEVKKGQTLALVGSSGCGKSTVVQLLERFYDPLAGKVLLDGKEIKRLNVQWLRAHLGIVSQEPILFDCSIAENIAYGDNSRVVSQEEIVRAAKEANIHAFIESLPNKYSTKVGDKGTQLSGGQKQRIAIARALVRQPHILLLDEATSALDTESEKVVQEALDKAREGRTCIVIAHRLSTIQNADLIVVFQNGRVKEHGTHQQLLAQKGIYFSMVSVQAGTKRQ

Consider `CC1COc2cc(Cl)ccc2N1C(=O)N1CC2(C1)CN(c1noc3cccnc13)C2` (stereo not drawn) [18-3], for which the efflux ratio at 1 h, 10 μM is < 1 under setting [1] and < 1 under setting [2]. Further, where the note is “MDR1-MDCK cells”, the Papp A→B at 1 h, 10 μM was > 20 ×10⁻⁶ cm/s.
Consider `CC1COc2cc(F)ccc2N1C(=O)N1CC2(C1)CN(c1cc(C#N)ccn1)C2` (single isomer, unassigned) [20-3-B], for which the efflux ratio at 1 h, 10 μM reads like this: under setting [1], 1 to 2; under setting [2], 1 to 2. Further, for the setting “MDR1-MDCK cells”, the Papp A→B at 1 h, 10 μM was > 20 ×10⁻⁶ cm/s.
Consider `Cc1nccnc1N1CC2(CN(C(=O)N3c4ccc(Cl)cc4OCC3C)C2)C1` (stereo not drawn) [20-10], for which the efflux ratio at 1 h, 10 μM is, setting by setting: under setting [1], < 1; under setting [2], < 1. Further, the Papp A→B at 1 h, 10 μM (MDR1-MDCK cells) was > 20 ×10⁻⁶ cm/s.
On to `O=C(N1CC2(C1)CN(c1ccc(F)cn1)C2)N1CCOCc2cc(Cl)ccc21` [8-4], for which the efflux ratio at 1 h, 10 μM fell in the range of 1 to 2 under setting [1] and 1 to 2 under setting [2]. Also, where the note is “MDR1-MDCK cells”, the Papp A→B at 1 h, 10 μM is > 20 ×10⁻⁶ cm/s.
As for `CC1COc2cc(Cl)ccc2N1C(=O)N1CC2(C1)CN(c1noc3cccnc13)C2` (single isomer, unassigned) [18-3-B], the efflux ratio at 1 h, 10 μM is, setting by setting: under setting [1], < 1; under setting [2], < 1. Further, the Papp A→B at 1 h, 10 μM (MDR1-MDCK cells) is > 20 ×10⁻⁶ cm/s.
Regarding `CC1COc2cc(F)ccc2N1C(=O)N1CC2(C1)CN(c1noc3ccccc13)C2` (stereo not drawn) [4-3], the efflux ratio at 1 h, 10 μM under setting [1] is < 1 and the efflux ratio at 1 h, 10 μM under setting [2] is < 1. Under “MDR1-MDCK cells”, the Papp A→B at 1 h, 10 μM is > 20 ×10⁻⁶ cm/s.
Regarding `COc1ccnc(N2CC3(CN(C(=O)N4c5ccc(Cl)cc5OCC4C)C3)C2)c1` (single isomer, unassigned) [20-8-B], the efflux ratio at 1 h, 10 μM was < 1 under setting [1] and < 1 under setting [2]. The Papp A→B at 1 h, 10 μM (MDR1-MDCK cells) is > 20 ×10⁻⁶ cm/s.
As for `Cc1cncc(N2CC3(CN(C(=O)N4c5ccc(F)cc5OCC4C)C3)C2)n1` (stereo not drawn) [20-2], the efflux ratio at 1 h, 10 μM reads like this: under setting [1], 1 to 2; under setting [2], 1 to 2. In addition, the Papp A→B at 1 h, 10 μM (MDR1-MDCK cells) is > 20 ×10⁻⁶ cm/s.
`Cc1ccnc(N2CC3(CN(C(=O)N4c5ccc(F)cc5OCC4C)C3)C2)c1` (single isomer, unassigned) [20-4-B]: the efflux ratio at 1 h, 10 μM by setting is: under setting [1], 1 to 2; under setting [2], < 1. In addition, the Papp A→B at 1 h, 10 μM (MDR1-MDCK cells) was > 20 ×10⁻⁶ cm/s.
On the same counts, the results for `CC1COc2cc(Cl)c(F)cc2N1C(=O)N1CC2(C1)CN(c1cccnn1)C2` (single isomer, unassigned) [19-4-A] are 2 to 3, 2 to 3 and > 20 ×10⁻⁶ cm/s.
For `Cc1ccnc(N2CC3(CN(C(=O)N4c5ccc(Cl)cc5OCC4C)C3)C2)n1` (single isomer, unassigned) [20-12-B] the same measures were 1 to 2, 1 to 2 and > 20 ×10⁻⁶ cm/s.
For `O=C(N1CC2(C1)CN(c1ccc(F)cn1)C2)N1CCOc2cc(Cl)ccc21` [9-7] the same measures were 1 to 2, < 1 and > 20 ×10⁻⁶ cm/s.
`CC1COc2cc(Cl)c(F)cc2N1C(=O)N1CC2(C1)CN(c1cccnn1)C2` (stereo not drawn) [19-4]: the efflux ratio at 1 h, 10 μM under setting [1] was < 1 and the efflux ratio at 1 h, 10 μM under setting [2] was < 1. In addition, for the setting “MDR1-MDCK cells”, the Papp A→B at 1 h, 10 μM was > 20 ×10⁻⁶ cm/s.
Turning to `Cc1cncc(N2CC3(CN(C(=O)N4c5ccc(F)cc5OCC4C)C3)C2)n1` (single isomer, unassigned) [20-2-A], the efflux ratio at 1 h, 10 μM by setting is: under setting [1], 1 to 2; under setting [2], 1 to 2. In addition, the Papp A→B at 1 h, 10 μM (MDR1-MDCK cells) is > 20 ×10⁻⁶ cm/s.
On to `O=C(N1CC2(C1)CN(c1ccccn1)C2)N1CCC(O)c2cc(Cl)ccc21` (single isomer, unassigned) [13-2-B], for which the efflux ratio at 1 h, 10 μM runs as follows: under setting [1], > 3; under setting [2], > 3. Where the note is “MDR1-MDCK cells”, the Papp A→B at 1 h, 10 μM was > 20 ×10⁻⁶ cm/s.
As for `Cc1nccnc1N1CC2(CN(C(=O)N3c4ccc(Cl)cc4OCC3C)C2)C1` (single isomer, unassigned) [20-10-A], the efflux ratio at 1 h, 10 μM was 1 to 2 under setting [1] and 1 to 2 under setting [2]. Besides, under “MDR1-MDCK cells”, the Papp A→B at 1 h, 10 μM was > 20 ×10⁻⁶ cm/s.
For `Cc1ccnc(N2CC3(CN(C(=O)N4c5ccc(Cl)cc5OCC4C)C3)C2)c1` (stereo not drawn) [20-11], the efflux ratio at 1 h, 10 μM reads like this: under setting [1], < 1; under setting [2], < 1. In addition, the Papp A→B at 1 h, 10 μM (MDR1-MDCK cells) is > 20 ×10⁻⁶ cm/s.
Consider `O=C(N1CC2(C1)CN(c1cnccn1)C2)N1CCOc2cc(Cl)ccc21` [8-3], for which the efflux ratio at 1 h, 10 μM under setting [1] lay within 1 to 2 and the efflux ratio at 1 h, 10 μM under setting [2] lay in the range of 1 to 2. Besides, the Papp A→B at 1 h, 10 μM (MDR1-MDCK cells) is > 20 ×10⁻⁶ cm/s.
For the compound `O=C(N1CC2(C1)CN(c1ccccn1)C2)N1CCOc2cc(Cl)ccc21` [8-2], the efflux ratio at 1 h, 10 μM is 1 to 2 under setting [1] and < 1 under setting [2]. Moreover, the Papp A→B at 1 h, 10 μM (MDR1-MDCK cells) is > 20 ×10⁻⁶ cm/s.
For `COc1ccnc(N2CC3(CN(C(=O)N4c5ccc(Cl)cc5OCC4C)C3)C2)n1` (single isomer, unassigned) [20-9-B], the efflux ratio at 1 h, 10 μM was in the range of 1 to 2 under setting [1] and 1 to 2 under setting [2]. Also, the Papp A→B at 1 h, 10 μM (MDR1-MDCK cells) was > 20 ×10⁻⁶ cm/s.
With `O=C(N1CC2(C1)CN(c1ccc(F)cn1)C2)N1CCC(O)c2cc(Cl)ccc21` (stereo not drawn) [13-1, (6-chloro-4-hydroxy-3,4-dihydroquinolin-1(2H)-yl)(6-(5-fluoropyridin-2-yl)-2,6-diazaspiro[3.3]heptan-2-yl)methanone], the efflux ratio at 1 h, 10 μM reads like this: under setting [1], > 3; under setting [2], > 3. Also, the Papp A→B at 1 h, 10 μM (MDR1-MDCK cells) is > 20 ×10⁻⁶ cm/s.
Regarding `O=C(N1CC2(C1)CN(c1ccccn1)C2)N1CCOCc2cc(Cl)ccc21` [8-12], the efflux ratio at 1 h, 10 μM is, setting by setting: under setting [1], 2 to 3; under setting [2], 2 to 3. Besides, the Papp A→B at 1 h, 10 μM (MDR1-MDCK cells) was > 20 ×10⁻⁶ cm/s.
`CC1COc2cc(F)c(F)cc2N1C(=O)N1CC2(C1)CN(c1ncccn1)C2` (single isomer, unassigned) [19-1-B]: the efflux ratio at 1 h, 10 μM is < 1 under setting [1] and 1 to 2 under setting [2]. Besides, the Papp A→B at 1 h, 10 μM (MDR1-MDCK cells) is > 20 ×10⁻⁶ cm/s.
Turning to `COc1ccnc(N2CC3(CN(C(=O)N4c5ccc(Cl)cc5OCC4C)C3)C2)n1` (stereo not drawn) [20-9], the efflux ratio at 1 h, 10 μM is < 1 under setting [1] and < 1 under setting [2]. The Papp A→B at 1 h, 10 μM (MDR1-MDCK cells) was > 20 ×10⁻⁶ cm/s.
As for `CC1COc2cc(F)c(F)cc2N1C(=O)N1CC2(C1)CN(c1ccc(F)cn1)C2` (stereo not drawn) [19-5], the efflux ratio at 1 h, 10 μM under setting [1] lay in the range of 1 to 2 and the efflux ratio at 1 h, 10 μM under setting [2] lay within 1 to 2. The Papp A→B at 1 h, 10 μM (MDR1-MDCK cells) is > 20 ×10⁻⁶ cm/s.
Take `O=C(N1CC2(C1)CN(c1ccc(F)cn1)C2)N1CCc2cc(Cl)ccc21` [8-11]: the efflux ratio at 1 h, 10 μM is, setting by setting: under setting [1], < 1; under setting [2], < 1. Besides, under “MDR1-MDCK cells”, the Papp A→B at 1 h, 10 μM is > 20 ×10⁻⁶ cm/s.
`CC1COc2cc(F)ccc2N1C(=O)N1CC2(C1)CN(c1noc3ccccc13)C2` (single isomer, unassigned) [4-3-B]: the efflux ratio at 1 h, 10 μM was < 1 under setting [1] and < 1 under setting [2]. Besides, the Papp A→B at 1 h, 10 μM (MDR1-MDCK cells) is > 20 ×10⁻⁶ cm/s.
On to `O=C(N1CC2(C1)CN(c1ccc(F)cn1)C2)N1CCC(O)c2cc(Cl)ccc21` (single isomer, unassigned) [13-1-A], for which the efflux ratio at 1 h, 10 μM runs as follows: under setting [1], > 3; under setting [2], > 3. Besides, the Papp A→B at 1 h, 10 μM (MDR1-MDCK cells) is > 20 ×10⁻⁶ cm/s.
Consider `CC1COc2cc(Cl)c(F)cc2N1C(=O)N1CC2(C1)CN(c1ncccn1)C2` (single isomer, unassigned) [19-2-B], for which the efflux ratio at 1 h, 10 μM by setting is: under setting [1], < 1; under setting [2], 1 to 2. For the same compound, the Papp A→B at 1 h, 10 μM (MDR1-MDCK cells) is > 20 ×10⁻⁶ cm/s.
